In the RepoRT retention time repository:

Assay: RP, Waters Atlantis T3, 50 × 4.6 mm, 5 µm, 40 °C, 0.8 mL/min, estimated dead time 0.66 min; A: water + 0.05% trifluoroacetic acid; B: acetonitrile + 0.1% formic acid, pH 3; gradient (min/%B) 0/10 1/10 7/95 12/95 12.5/10 14/10
Details: stereoisomer not certain

Row | Structure (SMILES) | LC retention time
1 | CC1(C)SC2C(NC(=O)C(N)c3ccccc3)C(=O)N2C1C(=O)O (stereo not given) [Ampicillin] | 4.09 min
2 | CC1C(NC(=O)C(=NOC(C)(C)C(=O)O)c2csc(N)n2)C(=O)N1S(=O)(=O)O (stereo not given) [Aztreonam] | 2.91 min
3 | CCCC1CC(C(=O)NC(C(C)Cl)C2OC(SC)C(O)C(O)C2O)N(C)C1 (stereo not given) [Clindamycin] | 4.83 min
4 | COc1cccc2c1C(=O)c1c(O)c3c(c(O)c1C2=O)CC(O)(C(C)=O)CC3OC1CC(N)C(O)C(C)O1 (stereo not given) [Daunomycin] | 5.44 min
5 | CC=CC=CC1OC(O)(C(CC)C(=O)NCC=CC=C(C)C(OC)C(C)C2OC(C=CC=CC=C(C)C(=O)c3c(O)cc[nH]c3=O)C(O)C2O)C(O)C(O)C1(C)C (stereo not given) [Kirromycin] | 6.52 min
6 | C=C(NC(=O)c1csc(-c2nc3c(cc2O)-c2nc(cs2)C(=O)NC(C(C)O)C(=O)NC(=CC)c2nc(cs2)C(=O)NC2CC(O)C(=O)OCc4cccc5[nH]c(c(C)c45)C(=O)SCC(NC(=O)c4csc2n4)c2nc-3cs2)n1)C(N)=O (stereo not given) [Nosiheptide] | 6.77 min
7 | CC1(C)SC2C(NC(=O)Cc3ccccc3)C(=O)N2C1C(=O)O (stereo not given) [Penicillin G] | 5.75 min
8 | COC1C=COC2(C)Oc3c(C)c(O)c4c(O)c(c(C=NN5CCN(C)CC5)c(O)c4c3C2=O)NC(=O)C(C)=CC=CC(C)C(O)C(C)C(O)C(C)C(OC(C)=O)C1C (stereo not given) [Rifampicin] | 6.17 min
9 | CCC(C(=O)O)C1CCC(C)C(C(C)C(O)C(C)C(=O)C(CC)C2OC3(C=CC(O)C4(CCC(C)(C5CCC(O)(CC)C(C)O5)O4)O3)C(C)CC2C)O1 (stereo not given) [Salinomycin] | 11.2 min
10 | CC(=O)NC1C(OC2c3ccc(c(Cl)c3)Oc3cc4cc(c3O)Oc3ccc(cc3Cl)CC3NC(=O)C(N)c5ccc(O)c(c5)Oc5cc(O)cc(c5)C(NC3=O)C(=O)NC4C(=O)NC3C(=O)NC2C(=O)NC(C(=O)O)c2cc(O)cc(OC4OC(CO)C(O)C(O)C4O)c2-c2cc3ccc2O)OC(CO)C(O)C1O (stereo not given) [Teicoplanin A3-1] | 4.02 min
11 | C=C(NC(=O)C(=C)NC(=O)c1csc(C2=NC3c4csc(n4)C4NC(=O)c5csc(n5)C(C(C)(O)C(C)O)NC(=O)C5CSC(=N5)C(=CC)NC(=O)C(C(C)O)NC(=O)c5csc(n5)C3(CC2)NC(=O)C(C)NC(=O)C(=C)NC(=O)C(C)NC(=O)C(C(C)CC)NC2C=Cc3c(C(C)O)cc(nc3C2O)C(=O)OC4C)n1)C(N)=O (stereo not given) [Thiostrepton] | 6.65 min
12 | CNC(CC(C)C)C(=O)NC1C(=O)NC(CC(N)=O)C(=O)NC2C(=O)NC3C(=O)NC(C(=O)NC(C(=O)O)c4cc(O)cc(O)c4-c4cc3ccc4O)C(O)c3ccc(c(Cl)c3)Oc3cc2cc(c3OC2OC(CO)C(O)C(O)C2OC2CC(C)(N)C(O)C(C)O2)Oc2ccc(cc2Cl)C1O (stereo not given) [Vancomycin] | 3.55 min

More lines, now with the values ahead:

Row | LC retention time | Structure (SMILES)
13 | 5.91 min | CCC1OC(=O)C(C)C(OC2CC(C)(OC)C(O)C(C)O2)C(C)C(OC2OC(C)CC(N(C)C)C2O)C(C)(OC)CC(C)C(=O)C(C)C(O)C1(C)O (stereo not given) [Clarithromycin]
14 | 4.44 min | CCC(C)CCCC(=O)NC(CCN)C(=O)NC(C(=O)NC(CCN)C(=O)NC1CCNC(=O)C(C(C)O)NC(=O)C(CCN)NC(=O)C(CCN)NC(=O)C(CC(C)C)NC(=O)C(CC(C)C)NC(=O)C(CCN)NC1=O)C(C)O (stereo not given) [Colistin]
15 | 5.79 min | CCCCCCCCCC(=O)NC(Cc1c[nH]c2ccccc12)C(=O)NC(CC(N)=O)C(=O)NC(CC(=O)O)C(=O)NC1C(=O)NCC(=O)NC(CCCN)C(=O)NC(CC(=O)O)C(=O)NC(C)C(=O)NC(CC(=O)O)C(=O)NCC(=O)NC(CO)C(=O)NC(C(C)CC(=O)O)C(=O)NC(CC(=O)c2ccccc2N)C(=O)OC1C (stereo not given) [Daptomycin]
16 | 8.3 min | CC(=O)OC1CC2(C)C(CC(O)C3C4(C)CCC(O)C(C)C4CCC32C)C1=C(CCC=C(C)C)C(=O)O (stereo not given) [Fusidinic acid]
17 | 6.62 min | CNC(=O)CC1NC(=O)c2csc(n2)-c2ccc(-c3nc(C4=NC(C(=O)N5CCCC5C(N)=O)CO4)cs3)nc2-c2csc(n2)-c2csc(n2)C(C(O)c2ccccc2)NC(=O)CNC(=O)c2nc(sc2COC)C(C(C)C)NC(=O)c2nc1sc2C (stereo not given) [GE2270A]
18 | 7.62 min | COC1C(OC(N)=O)C(O)C(Oc2ccc3c(O)c(NC(=O)c4ccc(O)c(CC=C(C)C)c4)c(=O)oc3c2C)OC1(C)C (stereo not given) [Novobiocin]
19 | 5.22 min | CCCC=CC=CC(=O)NC(CC(N)=O)C(=O)NC(CC(N)=O)C(=O)NC(C(=O)NC(CCCN)C(=O)NC(C(=O)NC(C(=O)NC(C(=O)NC(C(=O)NC(Cc1ccccc1)C(=O)NC(CCCN)C(=O)NC(C(=O)NC(C(=O)NC(C(=O)NCC(=O)NC(CC(C)C)C(=O)NC(C)C(=O)NC(C(=O)O)C1CCC(O)C(Cl)C1)C1CCC(O)CC1)C(C)O)C1CCC(O)CC1)C(C)O)C1CCC(O)CC1)C1CCC(O)CC1)C(C)O)C1CCC(O)CC1 (stereo not given) [Ramoplanin A]
20 | 4.06 min | COc1cc(Cc2cnc(N)nc2N)cc(OC)c1OC [Trimethoprim]
